Experimental data taken from ChEMBL document CHEMBL6109078, “Pyrylium derivatives as outer membrane permeabilizers against MDR gram-negative bacteria via multi-target mode of action” (Eur J Med Chem, 2025).
Active and inactive are the calls of the source. The rule behind the calls is not given here.

Key:
Acinetobacter baumannii [1] = experiment: Synergistic antibacterial activity against multi-drug resistant Acinetobacter baumannii clinical isolate 14 assessed as inhibition of bacterial growth in presence of polymyxin B by checkerboard assay; format: functional
Acinetobacter baumannii [2] = experiment: Synergistic antibacterial activity against multi-drug resistant Acinetobacter baumannii clinical isolate 43 assessed as inhibition of bacterial growth by measuring polymyxin B MIC by checkerboard assay; format: functional
Acinetobacter baumannii [3] = experiment: Synergistic antibacterial activity against multi-drug resistant Acinetobacter baumannii clinical isolate 1 assessed as fractional inhibitory concentration index in presence of gentamycin by checkerboard assay; format: functional
Acinetobacter baumannii [4] = experiment: Synergistic antibacterial activity against multi-drug resistant Acinetobacter baumannii clinical isolate 14 assessed as fractional inhibitory concentration index in presence of amikacin by checkerboard assay; format: functional
Acinetobacter baumannii [5] = experiment: Synergistic antibacterial activity against Acinetobacter baumannii ATCC 19606 assessed as fractional inhibitory concentration index in presence of gentamycin by checkerboard assay; format: functional
Escherichia coli [6] = experiment: Antibacterial activity against Escherichia coli CG-4 expressing MCR-1 and NDM-1 assessed as inhibition of bacterial growth by CLSI protocol based method; format: functional
Acinetobacter baumannii [7] = experiment: Antibacterial activity against Acinetobacter baumannii ATCC 19606 assessed as inhibition of bacterial growth by measuring decrease in bacterial count at 6.25 to 50 microg/ml measured after 12 hrs by time-kill kinetics analysis; format: functional; details: dose 6.25-50 µg/ml
Escherichia coli [8] = experiment: Synergistic antibacterial activity against Escherichia coli ATCC 25922 assessed as inhibition of bacterial growth in presence of polymyxin B by checkerboard assay; format: functional
Acinetobacter baumannii [9] = experiment: Synergistic antibacterial activity against multi-drug resistant Acinetobacter baumannii clinical isolate 1 assessed as inhibition of bacterial growth in presence of polymyxin B by checkerboard assay; format: functional
Acinetobacter baumannii [10] = experiment: Synergistic antibacterial activity against multi-drug resistant Acinetobacter baumannii clinical isolate 43 assessed as fractional inhibitory concentration index in presence of amikacin by checkerboard assay; format: functional
Acinetobacter baumannii [11] = experiment: Synergistic antibacterial activity against multi-drug resistant Acinetobacter baumannii clinical isolate 1 assessed as fractional inhibitory concentration index in presence of amikacin by checkerboard assay; format: functional
Escherichia coli [12] = experiment: Synergistic antibacterial activity against multi-drug resistant Escherichia coli clinical isolate 1 assessed as fractional inhibitory concentration index in presence of gentamycin by checkerboard assay; format: functional
Acinetobacter baumannii [13] = experiment: Antibacterial activity against Acinetobacter baumannii ATCC 19606 assessed as inhibition of bacterial growth by CLSI protocol based method; format: functional
Acinetobacter baumannii [14] = experiment: Synergistic antibacterial activity against multi-drug resistant Acinetobacter baumannii clinical isolate 5 assessed as fractional inhibitory concentration index in presence of amikacin by checkerboard assay; format: functional
Acinetobacter baumannii [15] = experiment: Synergistic antibacterial activity against multi-drug resistant Acinetobacter baumannii clinical isolate 5 assessed as fractional inhibitory concentration index in presence of gentamycin by checkerboard assay; format: functional
Acinetobacter baumannii [16] = experiment: Synergistic antibacterial activity against multi-drug resistant Acinetobacter baumannii clinical isolate 14 assessed as inhibition of bacterial growth by measuring polymyxin B MIC by checkerboard assay; format: functional
Escherichia coli [17] = experiment: Synergistic antibacterial activity against Escherichia coli ATCC 35218 assessed as inhibition of bacterial growth by measuring polymyxin B MIC by checkerboard assay; format: functional; details: Escherichia coli, ATCC 35218; read-out: MIC
Klebsiella pneumoniae [18] = experiment: Synergistic antibacterial activity against Klebsiella pneumoniae assessed as inhibition of bacterial growth in presence of polymyxin B by checkerboard assay; format: functional, organism-based
Acinetobacter baumannii [19] = experiment: Antibacterial activity against multi-drug resistant Acinetobacter baumannii clinical isolate 51 assessed as inhibition of bacterial growth by CLSI protocol based method; format: functional
Escherichia coli [20] = experiment: Antibacterial activity against Escherichia coli ATCC 25922 assessed as inhibition of bacterial growth by CLSI protocol based method; format: functional
Escherichia coli [21] = experiment: Synergistic antibacterial activity against Escherichia coli ATCC 25922 assessed as fractional inhibitory concentration index in presence of polymyxin B by checkerboard assay; format: functional
Acinetobacter baumannii [22] = experiment: Synergistic antibacterial activity against multi-drug resistant Acinetobacter baumannii clinical isolate 5 assessed as inhibition of bacterial growth by measuring polymyxin B MIC by checkerboard assay; format: functional
Acinetobacter baumannii [23] = experiment: Synergistic antibacterial activity against multi-drug resistant Acinetobacter baumannii clinical isolate 1 assessed as inhibition of bacterial growth by measuring polymyxin B MIC by checkerboard assay; format: functional
Escherichia coli [24] = experiment: Antibacterial activity against multi-drug resistant Escherichia coli clinical isolate 1 assessed as inhibition of bacterial growth by CLSI protocol based method; format: functional
Escherichia coli [25] = experiment: Synergistic antibacterial activity against multi-drug resistant Escherichia coli clinical isolate 1 assessed as inhibition of bacterial growth in presence of polymyxin B by checkerboard assay; format: functional
Bacteria = experiment: Binding affinity to His-tagged LptA (unknown origin) extracted from Escherichia coli BL21 (DE3) cells by BLI analysis
Escherichia coli [26] = experiment: Synergistic antibacterial activity against Escherichia coli ATCC 35218 assessed as fractional inhibitory concentration index in presence of gentamycin by checkerboard assay; format: functional
Escherichia coli [27] = experiment: Synergistic antibacterial activity against Escherichia coli CG-4 expressing MCR-1 and NDM-1 assessed as fractional inhibitory concentration index in presence of […] by checkerboard assay; format: functional
Escherichia coli [28] = experiment: Synergistic antibacterial activity against Escherichia coli ATCC 25922 assessed as fractional inhibitory concentration index in presence of gentamycin by checkerboard assay; format: functional
Pseudomonas aeruginosa [29] = experiment: Synergistic antibacterial activity against Pseudomonas aeruginosa assessed as inhibition of bacterial growth in presence of aminoglycoside by checkerboard assay; format: functional, organism-based
Acinetobacter baumannii [30] = experiment: Synergistic antibacterial activity against multi-drug resistant Acinetobacter baumannii clinical isolate 14 assessed as fractional inhibitory concentration index in presence of gentamycin by checkerboard assay; format: functional
Escherichia coli [31] = experiment: Synergistic antibacterial activity against Escherichia coli CG-4 expressing MCR-1 and NDM-1 assessed as inhibition of bacterial growth in presence of polymyxin B by checkerboard assay; format: functional
Acinetobacter baumannii [32] = experiment: Synergistic antibacterial activity against Acinetobacter baumannii ATCC 19606 assessed as fractional inhibitory concentration index in presence of polymyxin B by checkerboard assay; format: functional
Acinetobacter baumannii [33] = experiment: Antibacterial activity against multi-drug resistant Acinetobacter baumannii clinical isolate 1 assessed as inhibition of bacterial growth by CLSI protocol based method; format: functional
Acinetobacter baumannii [34] = experiment: Antibacterial activity against multi-drug resistant Acinetobacter baumannii clinical isolate 14 assessed as inhibition of bacterial growth by CLSI protocol based method; format: functional
Escherichia coli [35] = experiment: Synergistic antibacterial activity against Escherichia coli ATCC 35218 assessed as fractional inhibitory concentration index in presence of polymyxin B by checkerboard assay; format: functional
Klebsiella pneumoniae [36] = experiment: Antibacterial activity against Klebsiella pneumoniae ATCC 700603 assessed as inhibition of bacterial growth by CLSI protocol based method; format: functional
Acinetobacter baumannii [37] = experiment: Synergistic antibacterial activity against multi-drug resistant Acinetobacter baumannii clinical isolate 43 assessed as inhibition of bacterial growth in presence of polymyxin B by checkerboard assay; format: functional
Acinetobacter baumannii [38] = experiment: Antibacterial activity against multi-drug resistant Acinetobacter baumannii clinical isolate 2 assessed as inhibition of bacterial growth by CLSI protocol based method; format: functional
Escherichia coli [39] = experiment: Synergistic antibacterial activity against Escherichia coli ATCC 25922 assessed as inhibition of bacterial growth by measuring polymyxin B MIC by checkerboard assay; format: functional
Pseudomonas aeruginosa [40] = experiment: Antibacterial activity Pseudomonas aeruginosa PAO1 assessed as inhibition of bacterial growth by CLSI protocol based method; format: functional
Escherichia coli [41] = experiment: Synergistic antibacterial activity against Escherichia coli ATCC 25922 assessed as fractional inhibitory concentration index in presence of amikacin by checkerboard assay; format: functional

SMILES: CCN(CC)c1ccc(/C=C/c2cc(C(C)(C)C)[o+]c(C(C)(C)C)c2)cc1.O=S(=O)([O-])C(F)(F)F
- MIC (Acinetobacter baumannii [1]): 1.56 mg/L
- MIC (Acinetobacter baumannii [2]): 1 10^-4 ug/ml
- fractional inhibitory concentration index (FICI) (Acinetobacter baumannii [3]): 0.125
- fractional inhibitory concentration index (FICI) (Acinetobacter baumannii [4]): 0.125
- fractional inhibitory concentration index (FICI) (Acinetobacter baumannii [5]): 0.125
- MIC (Escherichia coli [6]): 12.5 mg/L
- Activity (Acinetobacter baumannii [7]): <6 log10CFU/ml
- MIC (Escherichia coli [8]): 1.56 mg/L
- MIC (Acinetobacter baumannii [9]): 1.56 mg/L
- fractional inhibitory concentration index (FICI) (Acinetobacter baumannii [10]): 0.125
- fractional inhibitory concentration index (FICI) (Acinetobacter baumannii [11]): 0.125
- fractional inhibitory concentration index (FICI) (Escherichia coli [12]): 0.125
- MIC (Acinetobacter baumannii [13]): 12.5 mg/L
- fractional inhibitory concentration index (FICI) (Acinetobacter baumannii [14]): 0.125
- fractional inhibitory concentration index (FICI) (Acinetobacter baumannii [15]): 0.125
- MIC (Acinetobacter baumannii [16]): 0.006 mg/L
- MIC (Escherichia coli [17]): 0.013 mg/L
- Activity (Klebsiella pneumoniae [18]): inactive
- MIC (Acinetobacter baumannii [19]): 12.5 mg/L
- MIC (Escherichia coli [20]): 6.25 mg/L
- fractional inhibitory concentration index (FICI) (Escherichia coli [21]): 0.266
- MIC (Acinetobacter baumannii [22]): 0.003 mg/L
- MIC (Acinetobacter baumannii [23]): 0.2 mg/L
- MIC (Escherichia coli [24]): ≥ 100 mg/L
- MIC (Escherichia coli [25]): 3.12 mg/L
- Activity (Bacteria): Dose-dependent-effect
- fractional inhibitory concentration index (FICI) (Escherichia coli [26]): 0.125
- fractional inhibitory concentration index (FICI) (Escherichia coli [27]): 0.125
- fractional inhibitory concentration index (FICI) (Escherichia coli [28]): 0.125
- Activity (Pseudomonas aeruginosa [29]): inactive
- fractional inhibitory concentration index (FICI) (Acinetobacter baumannii [30]): 0.125
- MIC (Escherichia coli [31]): 3.13 mg/L
- fractional inhibitory concentration index (FICI) (Acinetobacter baumannii [32]): 0.188
- MIC (Acinetobacter baumannii [33]): 25 mg/L
- MIC (Acinetobacter baumannii [34]): 12.5 mg/L
- fractional inhibitory concentration index (FICI) (Escherichia coli [35]): 0.375
- MIC (Klebsiella pneumoniae [36]): > 100 mg/L
- MIC (Acinetobacter baumannii [37]): 6.25 mg/L
- MIC (Acinetobacter baumannii [38]): 6.25 mg/L
- MIC (Escherichia coli [39]): 7.8 10^-4 ug/ml
- MIC (Pseudomonas aeruginosa [40]): > 100 mg/L
- fractional inhibitory concentration index (FICI) (Escherichia coli [41]): 0.125
